Reference: the NIST ThermoML archive (doi:10.1021/je9010882)
Several values for one entry are separate records, joined by “and”; a condition that tells them apart may be missing. Equal entries are not always repeated. ± gives the expanded uncertainty stated by the source.

Legend:
[1] = 101 kPa, Liquid; for speed of sound: Pulse-echo method
[2] = xn = mol fraction of the nth substance listed; conditions: 101 kPa, Liquid; for speed of sound: Pulse-echo method

OCCO [1,2-ethanediol]
mass density ([1]; 293.15 K): 1113.37 ± 0.37 kg/m3
speed of sound ([1]; 298.15 K): 1654.4 ± 2.2 m/s and 1655.2 ± 2.2 m/s

OCCO [1,2-ethanediol] + CCCCC(CC)CO
speed of sound ([2]; 298.15 K, x1 = 1): 1655.2 ± 2.2 m/s

OCCO [1,2-ethanediol] + CCCCCCCCCO
mass density ([2]; 293.15 K, x1 = 1): 1113.37 ± 0.37 kg/m3

OCCO [1,2-ethanediol] + CCCCCCCO
speed of sound ([2]; 298.15 K, x1 = 1): 1655.2 ± 2.2 m/s

OCCO [1,2-ethanediol] + CCO
speed of sound ([2]; 298.15 K, x1 = 0.1002): 1187.5 ± 2.1 m/s
speed of sound ([2]; 298.15 K, x1 = 0.198): 1231.7 ± 2.2 m/s
speed of sound ([2]; 298.15 K, x1 = 0.3014): 1279.7 ± 2.2 m/s
speed of sound ([2]; 298.15 K, x1 = 0.3998): 1328 ± 2.2 m/s
speed of sound ([2]; 298.15 K, x1 = 0.4944): 1374.9 ± 2.2 m/s
speed of sound ([2]; 298.15 K, x1 = 0.6428): 1454.5 ± 2.2 m/s
speed of sound ([2]; 298.15 K, x1 = 0.7499): 1513.4 ± 2.2 m/s
speed of sound ([2]; 298.15 K, x1 = 0.8498): 1569.5 ± 2.2 m/s
speed of sound ([2]; 298.15 K, x1 = 1): 1654.4 ± 2.2 m/s
mass density ([2]; 298.15 K, x1 = 0.1002): 819.39 ± 0.43 kg/m3
mass density ([2]; 298.15 K, x1 = 0.198): 852.357 ± 0.38 kg/m3
mass density ([2]; 298.15 K, x1 = 0.3014): 886.918 ± 0.33 kg/m3
mass density ([2]; 298.15 K, x1 = 0.3462): 901.797 ± 0.31 kg/m3
mass density ([2]; 298.15 K, x1 = 0.4944): 950.526 ± 0.26 kg/m3
mass density ([2]; 298.15 K, x1 = 0.6428): 998.611 ± 0.21 kg/m3
mass density ([2]; 298.15 K, x1 = 0.7499): 1032.4 ± 0.25 kg/m3
mass density ([2]; 298.15 K, x1 = 0.8498): 1063.88 ± 0.3 kg/m3

CCCCC(CC)CO (stereo not given) [2-ethyl-1-hexanol]
mass density ([1]; 298.15 K): 828.667 ± 0.42 kg/m3
speed of sound ([1]; 298.15 K): 1318.4 ± 2.2 m/s

CCCCC(CC)CO (stereo not given) [2-ethyl-1-hexanol] + OCCO
speed of sound ([2]; 298.15 K, x2 = 0): 1318.4 ± 2.2 m/s
speed of sound ([2]; 298.15 K, x2 = 0.1858): 1334.2 ± 2.2 m/s
speed of sound ([2]; 298.15 K, x2 = 0.2952): 1345.5 ± 2.2 m/s
speed of sound ([2]; 298.15 K, x2 = 0.4043): 1358.8 ± 2.2 m/s
speed of sound ([2]; 298.15 K, x2 = 0.4914): 1372.4 ± 2.2 m/s
speed of sound ([2]; 298.15 K, x2 = 0.599): 1394.9 ± 2.2 m/s
speed of sound ([2]; 298.15 K, x2 = 0.6996): 1423.5 ± 2.2 m/s
speed of sound ([2]; 298.15 K, x2 = 0.7985): 1468.2 ± 2.2 m/s
speed of sound ([2]; 298.15 K, x2 = 0.9): 1539.4 ± 2.2 m/s
mass density ([2]; 298.15 K, x2 = 0): 828.667 ± 0.42 kg/m3
mass density ([2]; 298.15 K, x2 = 0.1858): 848.929 ± 0.4 kg/m3
mass density ([2]; 298.15 K, x2 = 0.2952): 863.973 ± 0.38 kg/m3
mass density ([2]; 298.15 K, x2 = 0.4043): 881.937 ± 0.36 kg/m3
mass density ([2]; 298.15 K, x2 = 0.4512): 890.807 ± 0.34 kg/m3
mass density ([2]; 298.15 K, x2 = 0.4914): 899.091 ± 0.34 kg/m3
mass density ([2]; 298.15 K, x2 = 0.599): 924.736 ± 0.3 kg/m3
mass density ([2]; 298.15 K, x2 = 0.6996): 954.672 ± 0.27 kg/m3
mass density ([2]; 298.15 K, x2 = 0.7985): 991.938 ± 0.24 kg/m3
mass density ([2]; 298.15 K, x2 = 0.8507): 1015.69 ± 0.26 kg/m3
mass density ([2]; 298.15 K, x2 = 0.9): 1041.98 ± 0.3 kg/m3

CCO [ethanol]
mass density ([1]; 298.15 K): 785.144 ± 0.47 kg/m3
speed of sound ([1]; 298.15 K): 1142 ± 2.1 m/s

CCO [ethanol] + OCCO
speed of sound ([2]; 298.15 K, x2 = 0): 1142 ± 2.1 m/s
mass density ([2]; 298.15 K, x2 = 0): 785.144 ± 0.47 kg/m3

CCCCCCCO [heptan-1-ol]
mass density ([1]; 298.15 K): 818.793 ± 0.55 kg/m3
speed of sound ([1]; 298.15 K): 1327 ± 2.4 m/s

CCCCCCCO [heptan-1-ol] + OCCO
speed of sound ([2]; 298.15 K, x2 = 0): 1327 ± 2.4 m/s
speed of sound ([2]; 298.15 K, x2 = 0.0668): 1330.3 ± 2.4 m/s
speed of sound ([2]; 298.15 K, x2 = 0.2007): 1339.2 ± 2.3 m/s
speed of sound ([2]; 298.15 K, x2 = 0.2946): 1346.9 ± 2.3 m/s
speed of sound ([2]; 298.15 K, x2 = 0.4022): 1359.6 ± 2.3 m/s
speed of sound ([2]; 298.15 K, x2 = 0.4834): 1371.6 ± 2.3 m/s
speed of sound ([2]; 298.15 K, x2 = 0.5508): 1384.3 ± 2.3 m/s
speed of sound ([2]; 298.15 K, x2 = 0.6087): 1398.5 ± 2.3 m/s
speed of sound ([2]; 298.15 K, x2 = 0.6766): 1418.2 ± 2.3 m/s
speed of sound ([2]; 298.15 K, x2 = 0.7988): 1470.8 ± 2.2 m/s
speed of sound ([2]; 298.15 K, x2 = 0.894): 1538 ± 2.2 m/s
mass density ([2]; 298.15 K, x2 = 0): 818.793 ± 0.55 kg/m3
mass density ([2]; 298.15 K, x2 = 0.0668): 826.183 ± 0.53 kg/m3
mass density ([2]; 298.15 K, x2 = 0.1162): 832.262 ± 0.52 kg/m3
mass density ([2]; 298.15 K, x2 = 0.2007): 843.633 ± 0.49 kg/m3
mass density ([2]; 298.15 K, x2 = 0.2946): 858.174 ± 0.46 kg/m3
mass density ([2]; 298.15 K, x2 = 0.4022): 877.754 ± 0.43 kg/m3
mass density ([2]; 298.15 K, x2 = 0.4834): 895.05 ± 0.39 kg/m3
mass density ([2]; 298.15 K, x2 = 0.5508): 911.359 ± 0.38 kg/m3
mass density ([2]; 298.15 K, x2 = 0.6087): 927.049 ± 0.35 kg/m3
mass density ([2]; 298.15 K, x2 = 0.6766): 948.151 ± 0.31 kg/m3
mass density ([2]; 298.15 K, x2 = 0.7988): 994.195 ± 0.26 kg/m3
mass density ([2]; 298.15 K, x2 = 0.894): 1041.3 ± 0.3 kg/m3

CCCCCCCCCO [nonan-1-ol]
mass density ([1]; 293.15 K, Vibrating tube method): 827.65 ± 0.24 kg/m3
mass density ([1]; 298.15 K, Vibrating tube method): 824.238 ± 0.25 kg/m3

CCCCCCCCCO [nonan-1-ol] + OCCO
mass density ([2]; 293.15 K, x2 = 0): 827.65 ± 0.53 kg/m3
mass density ([2]; 293.15 K, x2 = 0.1047): 837.118 ± 0.51 kg/m3
mass density ([2]; 293.15 K, x2 = 0.204): 847.778 ± 0.48 kg/m3
mass density ([2]; 293.15 K, x2 = 0.2878): 858.547 ± 0.46 kg/m3
mass density ([2]; 293.15 K, x2 = 0.3927): 874.431 ± 0.43 kg/m3
mass density ([2]; 293.15 K, x2 = 0.5203): 898.673 ± 0.38 kg/m3
mass density ([2]; 293.15 K, x2 = 0.5982): 917.33 ± 0.35 kg/m3
mass density ([2]; 293.15 K, x2 = 0.703): 948.15 ± 0.31 kg/m3
mass density ([2]; 293.15 K, x2 = 0.7805): 977.295 ± 0.28 kg/m3
mass density ([2]; 293.15 K, x2 = 0.9004): 1038.17 ± 0.36 kg/m3
mass density ([2]; 298.15 K, x2 = 0): 824.238 ± 0.54 kg/m3
mass density ([2]; 298.15 K, x2 = 0.1047): 833.672 ± 0.51 kg/m3
mass density ([2]; 298.15 K, x2 = 0.204): 844.308 ± 0.48 kg/m3
mass density ([2]; 298.15 K, x2 = 0.2878): 855.056 ± 0.46 kg/m3
mass density ([2]; 298.15 K, x2 = 0.3927): 870.919 ± 0.42 kg/m3
mass density ([2]; 298.15 K, x2 = 0.5203): 895.129 ± 0.38 kg/m3
mass density ([2]; 298.15 K, x2 = 0.5982): 913.771 ± 0.34 kg/m3
mass density ([2]; 298.15 K, x2 = 0.703): 944.568 ± 0.29 kg/m3
mass density ([2]; 298.15 K, x2 = 0.7805): 973.695 ± 0.24 kg/m3
mass density ([2]; 298.15 K, x2 = 0.9004): 1034.58 ± 0.27 kg/m3
